The text below walks through data of ChEMBL document CHEMBL2157896, “Engineering pH-gated transitions for selective and efficient double-strand DNA photocleavage in hypoxic tumors” (J Med Chem, 2011).

Holding throughout (format): nucleic-acid assay
Assay [1] deals with Nucleic Acid. Description: Induction of photochemical DNA cleavage in Escherichia coli pBR322 assessed as form 2 level at 15 uM in pH 8.0 phosphate buffer measured after 1 min of UV irradiation.
The subject of assay [2] is Nucleic Acid. Kind of assay: Induction of photochemical DNA cleavage in Escherichia coli pBR322 assessed as form 3 level at 15 uM in pH 6.0 phosphate buffer measured after 8 mins of UV irradiation.
The test system of assay [3] is Nucleic Acid. Description: Induction of photochemical DNA cleavage in Escherichia coli pBR322 assessed as form I level at 15 uM in pH 8.0 phosphate buffer measured after 4 mins of UV irradiation.
Assay [4] deals with Nucleic Acid. Kind of assay: Induction of photochemical DNA cleavage in Escherichia coli pBR322 assessed as form I level at 15 uM in pH 7.0 phosphate buffer measured after 10 mins of UV irradiation.
Assay [5] relates to Nucleic Acid. Kind of assay: Induction of photochemical DNA cleavage in Escherichia coli pBR322 assessed as form 2 level at 15 uM in pH 8.0 phosphate buffer measured after 8 mins of UV irradiation.
Assay [6] has as its system Nucleic Acid. Description: Induction of photochemical DNA cleavage in Escherichia coli pBR322 assessed as form I level at 15 uM in pH 7.0 phosphate buffer measured after 1 min of UV irradiation.
Assay [7] has as its system Nucleic Acid. Description: Induction of photochemical DNA cleavage in Escherichia coli pBR322 assessed as form 3 level at 15 uM in pH 7.0 phosphate buffer measured after 2 mins of UV irradiation.

Consider `NCCCC[C@H](N)C(=O)NCCCC[C@H](N)C(=O)Nc1ccc(C#Cc2c(F)c(F)nc(F)c2F)cc1.O=C(O)C(F)(F)F`, for which the Activity in the assay on Nucleic Acid [1] came to 16.1%; in the assay on Nucleic Acid [2], 65%; with Nucleic Acid [3] it was 58.6%; with Nucleic Acid [4] it was 11.7%; in the assay with Nucleic Acid [5], 45.6%; with Nucleic Acid [6], 52.7%. For the same compound, in the assay with Nucleic Acid [7], the Activity is 12.7%.
